Experimental data published in patent publication US20140343165A1, “PLANT PROTECTION AGENT” (priority 2010, published 2014).

What was measured:
[1] = tested on: Erwinia amylovora; test: In vitro infection tests on apple blossoms; conditions: for Infested blossoms: 14 blossoms
Description: In these tests, streptomycin was used as a positive control.
The in vitro tests on apple blossoms represented the natural course of infection and were conducted as follows: blooming apple blossoms were cut and further cultivated standing in a sterile sugar solution in transparent plastic containers. […] Following another 35 hours of incubation, the blossoms were wet by spraying on water. The infection rate was determined after 8 to 10 days of incubation at 22° C. and 70% relative humidity.

[2] = tested on: Erwinia amylovora; test: Bacteriostatic versus bactericidal effect: plating aliquots of suspension cultures onto agent-free solid medium; format: cell-based; conditions: for Colony formation of surviving cells after plating: already after 30 min
Description: This may be determined by means of plating aliquots of the suspension cultures containing the agent onto agent-free solid media. […] A culture blended with a corresponding volume of the solvent for juglone (ethanol) served as a control. […]. […] Aliquots of the suspension culture having an equivalent ethanol concentration were withdrawn and plated to serve as a control. After two days of incubating the plates at 25° C., the respective colony formation was documented.

[3] = tested on: Erwinia amylovora; test: Inoculation tests on pear fruits; format: in vivo
From the text: As opposed to the blossom system, this test has to be performed with lesions of the plant tissue. It is known that any results obtained with this system have a lower reproducibility and are harder to evaluate. The corresponding results are photographically documented in FIG. 3. Two different pear varieties were used.
The development of black necrotic lesions of the plant tissue and the formation of white bacterial slime (exsudate) were taken as criteria for evaluating the degree of infection.
Erwinia amylovora was inoculated into 5 ml KB medium and cultivated over night at 28° C. and 200 rpm. Upon reaching a cell density corresponding to OD600 (1:10 dilution)=0.17 to 0.20, 1 ml of the undiluted culture was centrifuged and the bacterial pellet was resuspended in PBS (phosphate buffered saline). Unripe pear fruits (July) obtained from the experimental plantation (Jedlersdorf, BOKU) were harvested, washed with water, dried and used for inoculation (EPPO protocol 2004). In the inoculation procedure, two holes each having a volume of about 10 μl were pierced into each fruit using a pipette tip. 10 μl of the test solution were pipetted into each of the hollows thus formed, followed by incubation of the fruits for 15 min. Upon absorption of the test solutions by the tissue, each lesion was inoculated with 10 μl of Erwinia amylovora, suspended in PBS. The direct inoculation of fruits that had not been treated with the agent before served as a positive control. In the negative control, sterile water was used instead of the agent solution. A 0.01 mM streptomycin solution was used as a positive control. The inoculated fruits were incubated for 3 to 7 days at 25° C. and 100% relative humidity.

[4] = tested on: Erwinia carotovora; test: Growth inhibition in suspension culture; format: cell-based
Description: Various other species of Erwinia are also important phytopathogens. The bacterium Erwinia carotovora was selected as an example of a further Erwinia species.
(§1) Erwinia amylovora was inoculated into 5 ml of KB medium and cultivated over night at 28° C. and 200 rpm. This culture was diluted with KB medium to OD600=0.3 and 2 ml thereof were further cultivated in sealed cuvettes in the presence of different agent concentrations immediately afterwards. […] Two controls were conducted: unchanged medium and medium with an ethanol concentration equal to that of the test preparations. The optical densities of the cultures OD600 were measured over time at predetermined intervals.

[5] = tested on: Erwinia amylovora; test: Growth inhibition in in vitro suspension cultures (OD600 growth curves); format: cell-based; conditions: for Effect on growth of suspension culture: Example 2
Description: Streptomycin as a conventional agent against Erwinia amylovora was used as a positive control (see FIGS. 1A to 1D).
The specific members of the three different classes of quinones were uniformly pre-dissolved in ethanol to give a 1 mM solution and subsequently diluted to the respective final concentrations in culture medium. Corresponding controls were conducted with equal volumes of ethanol in the absence of agent (FIG. 4, “KE”). Attention was particularly focused on a low concentration rage of less than 100 μM, in which unspecific and weak antibacterial effects are no longer of significance.
In the present experiments, the Austrian Erwinia amylovora standard strain 295/93 (AGES) was employed.
as §1

[6] = tested on: bees; conditions: on contact or by ingestion
[7] = tested on: pear blossoms (Williams Christ); test: Phytotoxicity on pear blossoms and subsequent fruit development; format: in vivo, Pyrus communis; conditions: for Browning reaction on petals: Williams Christ; for Fruit russeting: all tested concentrations
Description: (§2) . In this test, the respective concentrations were employed that had been proven as completely effective (no bacterial growth) in the in vitro suspension cultures. […]. […] The maximum final concentrations of the solvent ethanol in the treatment solutions were 5%; corresponding control treatments were conducted with 0.5 or 5% ethanol in water. For each variant (agent, concentration, variety), two of the larger branches were treated. The test were conducted in the experimental fruit plantation of the University of Agriculture in Jedlersdorf, Austria. The trees of each series were of identical age as well as developmental and observable physiological state. The treatments were conducted in the morning between 8:00 and 9:30 at a relative humidity of 68 to 75% and temperatures of 12 to 13° C. On all days of treatment, the sprayed blossoms were directly exposed to sunlight afterwards. Phytotoxic effects were evaluated on the days following treatment. During the following months, fruit set and development was observed and compared to that of the control plants. In the evaluation, attention was particularly focused on visible alterations of the fruit epidermis.

[8] = tested on: apple blossoms (Smoothy and Idared); test: Phytotoxicity on apple blossoms and subsequent fruit development; format: in vivo, Malus x domestica; conditions: for Browning reaction on petals: Smoothy and Idared; for Fruit russeting: all tested concentrations
Description: as §2

[9] = concentration not given, curative

Structure (SMILES): O=C1C=CC(=O)C=C1 [Benzoquinone, 1,4-benzoquinone]
- phyotoxic ([1]; 0.01 mM, apple blossoms): no
- Degree of efficacy (%) ([1]; 0.01 mM, curative): 33%
- Infestation (%) ([1]; 0.01 mM, curative): 57%
- Infested blossoms ([1]; 0.01 mM, curative): 8
- phyotoxic ([1]; 0.05 mM, apple blossoms): yes
- Degree of efficacy (%) ([1]; 0.05 mM, curative): 42%
- Infestation (%) ([1]; 0.05 mM, curative): 50%
- Infested blossoms ([1]; 0.05 mM, curative): 7

Structure (SMILES): O=C1C=CC(=O)c2c(O)cccc21 [Juglone]
- Colony formation of surviving cells after plating ([2]; 0.01 mM in suspension culture): no colony formation of surviving cells after each prolonged incubation time
- Colony formation of surviving cells after plating ([2]; 0.1 mM in suspension culture): no colony formation of surviving cells after each prolonged incubation time
- Bactericidal effect ([2]; conclusion of plating tests): strong bactericidal effect
- Effect on infection of pear fruits ([3]; 0.1 mM, pre-incubation 15 min before inoculation): effect approximately comparable to that of 0.01 mM streptomycin
- Degree of efficacy (%) ([1]; 0.005 mM, curative): 58%
- Infestation (%) ([1]; 0.005 mM, curative): 36%
- Infested blossoms ([1]; 0.005 mM, curative): 5
- Degree of efficacy (%) ([1]; 0.01 mM, curative): 67%
- Infestation (%) ([1]; 0.01 mM, curative): 29%
- Infested blossoms ([1]; 0.01 mM, curative): 4
- Growth in suspension culture ([4]; 0.1 mM): completely inhibited
- Growth in suspension culture ([4]; concentrations lower than 0.1 mM): not by lower concentrations
- Effect on growth of suspension culture ([5]; 5 μM): growth occurs after a prolonged incubation period
- Effect on growth of suspension culture ([5]; 10 μM (1.74 mg/1)): completely bactericidal effect
- Effect on growth of suspension culture ([5]; 50 μM, 5% ethanol in medium): distinct effect
- Concentrations proven completely effective (no bacterial growth) in the in vitro suspension cultures ([5]; suspension culture): 0.005 to 0.05 mM
- Activity against Erwinia amylovora (growth inhibition) ([5]; suspension culture, compared with streptomycin): activity corresponding to that of streptomycin in a sub-millimolar concentration range
- Toxicity to bees [6]: non-toxic to bees on contact or by ingestion
- Browning reaction on petals ([7]; tested 0.005/0.01 mM): No effect
- Fruit russeting [7]: Neither the juglone nor the plumbagin treatments resulted in observable fruit russeting
- Browning reaction on petals ([8]; 0.025 mM): slightly brown spots
- Browning reaction on petals ([8]; 0.05 mM): more distinct spots
- Fruit russeting [8]: Neither the juglone nor the plumbagin treatments resulted in observable fruit russeting

Structure (SMILES): CC1=CC(=O)c2c(O)cccc2C1=O [Plumbagin, 5-hydroxy-2-methyl-1,4-naphthoquinone]
- Degree of efficacy (%) ([1]; 0.1 mM, curative): 58%
- Infestation (%) ([1]; 0.1 mM, curative): 36%
- Infested blossoms ([1]; 0.1 mM, curative): 5
- Degree of efficacy (%) ([1]; 0.5 mM, curative): 50%
- Infestation (%) ([1]; 0.5 mM, curative): 43%
- Infested blossoms ([1]; 0.5 mM, curative): 6
- Concentrations proven completely effective (no bacterial growth) in the in vitro suspension cultures ([5]; suspension culture): 0.1 to 0.5 mM
- Browning reaction on petals ([7]; 0.1 mM): brown spots
- Browning reaction on petals ([7]; 0.5 mM, compared with 0.1 mM): more distinct
- Fruit russeting [7]: Neither the juglone nor the plumbagin treatments resulted in observable fruit russeting
- Browning reaction on petals ([8]; 0.1 mM): brown spots
- Browning reaction on petals ([8]; 0.5 mM, compared with 0.1 mM): more distinct
- Fruit russeting [8]: Neither the juglone nor the plumbagin treatments resulted in observable fruit russeting

Structure (SMILES): [H]/N=C(/N)N[C@H]1[C@H](O)[C@@H](O)[C@H](O[C@@H]2O[C@@H](C)[C@](O)(C=O)[C@H]2O[C@@H]2O[C@@H](CO)[C@H](O)[C@@H](O)[C@@H]2NC)[C@@H](N/C(N)=N\[H])[C@@H]1O [Streptomycin, streptomycin]
- Exsudate formation ([3]; 0.01 mM): no exsudate formation
- Necrotic lesions ([3]; 0.01 mM, Williams Christ and Bosc's Bottle Pear, versus inoculation without agent): slightly diminished
- Infested blossoms ([1]; concentration not given, agent applied 2.5 h after Erwinia amylovora (curative)): 3
- Degree of efficacy (%) [1, 9]: 75%
- Infestation (%) [1, 9]: 21%
- phyotoxic ([1]; in vivo): no
